# According to PubChem BioAssay AID256 (DTP/NCI, 2004):
# Where “and” joins values, the source holds several entries; their conditions need not be identical. Equal values may be shown once. Inconclusive results and toxic doses are left out.
# Test system: CD2F1 mice, L1210 leukemia ip, survival T/C
# Assay: NCI In Vivo Anticancer Drug Screen. Data for tumor model L1210 Leukemia (intraperitoneal) in CD2F1 (CDF1) mice
# Conditions: higher = longer survival
# Summary of the method: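 Each value reflects a quotient of treated over vehicle control outcomes in mice with a transplanted tumor.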
# [1] = endpoint: mean survival time, dose: 100.0 mg/kg/injection, schedule: Q04DX003 (ip), vehicle: saline with Tween-80
# [2] = endpoint: mean survival time, dose: 100.0 mg/kg/injection, schedule: Q01DX009 (ip), vehicle: saline with Tween-80
# [3] = endpoint: mean survival time, dose: 200.0 mg/kg/injection, schedule: Q01DX009 (ip), vehicle: saline with Tween-80
# [4] = endpoint: mean survival time, dose: 400.0 mg/kg/injection, schedule: Q01DX009 (ip), vehicle: saline with Tween-80
# [5] = endpoint: mean survival time, dose: 200.0 mg/kg/injection, schedule: Q04DX003 (ip), vehicle: saline with Tween-80
# [6] = endpoint: mean survival time, dose: 400.0 mg/kg/injection, schedule: Q04DX003 (ip), vehicle: saline with Tween-80
# [7] = endpoint: mean survival time, dose: 200.0 mg/kg/injection, schedule: Q01DX001 (ip), vehicle: saline
# [8] = endpoint: mean survival time, dose: 400.0 mg/kg/injection, schedule: Q01DX001 (ip), vehicle: saline
smiles,measurement,setting,value
Cc1ccc(S(=O)(=O)N/N=C/C(=O)O)cc1,T/C,"endpoint: mean survival time, dose: 25.0 mg/kg/injection, schedule: Q01DX009 (ip), vehicle: other",117 % of control and 108 % of control
same,T/C,"endpoint: mean survival time, dose: 100.0 mg/kg/injection, schedule: Q01DX009 (ip), vehicle: other",123 % of control
same,T/C,"endpoint: mean survival time, dose: 100.0 mg/kg/injection, schedule: Q04DX003 (ip), vehicle: Klucel (hydroxypropylcellulose) (HPC)",150 % of control
same,T/C,[1],123 % of control
same,T/C,"endpoint: mean survival time, dose: 200.0 mg/kg/injection, schedule: Q01DX009 (ip), vehicle: other",96 % of control and 102 % of control
same,T/C,"endpoint: mean survival time, dose: 400.0 mg/kg/injection, schedule: Q04DX003 (ip), vehicle: Klucel (hydroxypropylcellulose) (HPC)",186 % of control
same,T/C,"endpoint: mean survival time, dose: 600.0 mg/kg/injection, schedule: Q04DX003 (ip), vehicle: Klucel (hydroxypropylcellulose) (HPC)",114 % of control
same,T/C,"endpoint: mean survival time, dose: 600.0 mg/kg/injection, schedule: Q04DX003 (ip), vehicle: saline with Tween-80",153 % of control
same,T/C,"endpoint: median survival time, dose: 1.0 mg/kg/injection, schedule: Q03HX024 (ip), vehicle: saline",111 % of control
same,T/C,"endpoint: median survival time, dose: 2.0 mg/kg/injection, schedule: Q03HX016 (ip), vehicle: saline",124 % of control
same,T/C,"endpoint: median survival time, dose: 2.0 mg/kg/injection, schedule: Q03HX024 (ip), vehicle: saline",112 % of control
same,T/C,"endpoint: median survival time, dose: 4.0 mg/kg/injection, schedule: Q03HX008 (ip), vehicle: saline",124 % of control
same,T/C,"endpoint: median survival time, dose: 4.0 mg/kg/injection, schedule: Q03HX024 (ip), vehicle: saline",121 % of control
same,T/C,"endpoint: median survival time, dose: 8.0 mg/kg/injection, schedule: Q01DX009 (sc), vehicle: saline",102 % of control
same,T/C,"endpoint: median survival time, dose: 16.0 mg/kg/injection, schedule: Q01DX009 (oral), vehicle: saline",101 % of control
same,T/C,"endpoint: median survival time, dose: 16.0 mg/kg/injection, schedule: Q01DX009 (sc), vehicle: saline",104 % of control
same,T/C,"endpoint: median survival time, dose: 32.0 mg/kg/injection, schedule: Q01DX001 (sc), vehicle: saline",104 % of control
same,T/C,"endpoint: median survival time, dose: 32.0 mg/kg/injection, schedule: Q01DX009 (ip), vehicle: saline",166 % of control
same,T/C,"endpoint: median survival time, dose: 32.0 mg/kg/injection, schedule: Q01DX009 (oral), vehicle: saline",98 % of control
same,T/C,"endpoint: median survival time, dose: 32.0 mg/kg/injection, schedule: Q01DX009 (sc), vehicle: saline",116 % of control
same,T/C,"endpoint: median survival time, dose: 32.0 mg/kg/injection, schedule: Q03HX016 (ip), vehicle: saline",123 % of control
same,T/C,"endpoint: median survival time, dose: 32.0 mg/kg/injection, schedule: Q03HX024 (ip), vehicle: saline",92 % of control
same,T/C,"endpoint: median survival time, dose: 64.0 mg/kg/injection, schedule: Q01DX001 (sc), vehicle: saline",105 % of control
same,T/C,"endpoint: median survival time, dose: 64.0 mg/kg/injection, schedule: Q01DX009 (ip), vehicle: saline",157 % of control
same,T/C,"endpoint: median survival time, dose: 64.0 mg/kg/injection, schedule: Q01DX009 (oral), vehicle: saline",102 % of control
same,T/C,"endpoint: median survival time, dose: 64.0 mg/kg/injection, schedule: Q01DX009 (sc), vehicle: saline",116 % of control
same,T/C,"endpoint: median survival time, dose: 64.0 mg/kg/injection, schedule: Q04DX003 (ip), vehicle: saline",164 % of control
same,T/C,"endpoint: median survival time, dose: 128.0 mg/kg/injection, schedule: Q01DX001 (oral), vehicle: saline",102 % of control
same,T/C,"endpoint: median survival time, dose: 128.0 mg/kg/injection, schedule: Q01DX001 (sc), vehicle: saline",104 % of control
same,T/C,"endpoint: median survival time, dose: 128.0 mg/kg/injection, schedule: Q01DX009 (oral), vehicle: saline",102 % of control
same,T/C,"endpoint: median survival time, dose: 128.0 mg/kg/injection, schedule: Q01DX009 (sc), vehicle: saline",116 % of control
same,T/C,"endpoint: median survival time, dose: 128.0 mg/kg/injection, schedule: Q04DX003 (ip), vehicle: saline",168 % of control
same,T/C,"endpoint: median survival time, dose: 128.0 mg/kg/injection, schedule: Q08DX002 (ip), vehicle: saline",155 % of control
same,T/C,"endpoint: median survival time, dose: 256.0 mg/kg/injection, schedule: Q01DX001 (oral), vehicle: saline",98 % of control
same,T/C,"endpoint: median survival time, dose: 256.0 mg/kg/injection, schedule: Q01DX001 (sc), vehicle: saline",107 % of control
same,T/C,"endpoint: median survival time, dose: 256.0 mg/kg/injection, schedule: Q01DX009 (oral), vehicle: saline",105 % of control
same,T/C,"endpoint: median survival time, dose: 512.0 mg/kg/injection, schedule: Q01DX001 (oral), vehicle: saline",110 % of control
same,T/C,"endpoint: median survival time, dose: 512.0 mg/kg/injection, schedule: Q01DX001 (sc), vehicle: saline",112 % of control
same,T/C,"endpoint: median survival time, dose: 1024.0 mg/kg/injection, schedule: Q01DX001 (oral), vehicle: saline",123 % of control
Cc1cccc2c1-c1c(C)cccc1CSC2,T/C,[2],95 % of control
same,T/C,"endpoint: mean survival time, dose: 100.0 mg/kg/injection, schedule: Q04DX003 (ip), vehicle: saline sonified",98 % of control
same,T/C,[3],97 % of control
same,T/C,"endpoint: mean survival time, dose: 200.0 mg/kg/injection, schedule: Q04DX003 (ip), vehicle: saline sonified",93 % of control
same,T/C,[4],101 % of control
same,T/C,"endpoint: mean survival time, dose: 400.0 mg/kg/injection, schedule: Q04DX003 (ip), vehicle: saline sonified",93 % of control
O=C(O)C1CCOC1=O (configuration not stated),T/C,"endpoint: mean survival time, dose: 50.0 mg/kg/injection, schedule: Q04DX002 (ip), vehicle: saline",107 % of control
same,T/C,"endpoint: mean survival time, dose: 100.0 mg/kg/injection, schedule: Q04DX002 (ip), vehicle: saline",98 % of control
same,T/C,"endpoint: mean survival time, dose: 200.0 mg/kg/injection, schedule: Q04DX002 (ip), vehicle: saline",98 % of control
NC(=O)C1(N2CCCCC2)CCN(CCCC(=O)c2ccc(F)cc2)CC1,T/C,"endpoint: mean survival time, dose: 25.0 mg/kg/injection, schedule: Q01DX009 (ip), vehicle: saline",101 % of control
same,T/C,"endpoint: mean survival time, dose: 50.0 mg/kg/injection, schedule: Q01DX009 (ip), vehicle: saline",101 % of control
NC1CC[N-]CC1.NC1CC[N-]CC1.NC1CC[N-]CC1.NC1CC[N-]CC1.[Cl][Rh][Cl],T/C,"endpoint: mean survival time, dose: 6.25 mg/kg/injection, schedule: Q04DX003 (ip), vehicle: saline with Tween-80",98 % of control
same,T/C,"endpoint: mean survival time, dose: 12.5 mg/kg/injection, schedule: Q04DX003 (ip), vehicle: saline with Tween-80",101 % of control
same,T/C,"endpoint: mean survival time, dose: 25.0 mg/kg/injection, schedule: Q04DX003 (ip), vehicle: saline with Tween-80",95 % of control
OCC1OC(Oc2ccccc2)C(O)C1O (configuration not stated),T/C,"endpoint: mean survival time, dose: 75.0 mg/kg/injection, schedule: Q01DX001 (ip), vehicle: saline",93 % of control
same,T/C,"endpoint: mean survival time, dose: 150.0 mg/kg/injection, schedule: Q01DX001 (ip), vehicle: saline",98 % of control
same,T/C,"endpoint: mean survival time, dose: 300.0 mg/kg/injection, schedule: Q01DX001 (ip), vehicle: saline",98 % of control
CC1C(=O)OC2C1CCC1(C)C=CC(=O)C(C)C21 (configuration not stated),T/C,"endpoint: mean survival time, dose: 5.0 mg/kg/injection, schedule: Q04DX002 (ip), vehicle: saline with Tween-80",108 % of control
same,T/C,"endpoint: mean survival time, dose: 10.0 mg/kg/injection, schedule: Q04DX002 (ip), vehicle: saline with Tween-80",100 % of control
same,T/C,"endpoint: mean survival time, dose: 20.0 mg/kg/injection, schedule: Q04DX002 (ip), vehicle: saline with Tween-80",108 % of control
same,T/C,"endpoint: mean survival time, dose: 100.0 mg/kg/injection, schedule: Q04DX002 (ip), vehicle: saline with Tween-80",116 % of control
same,T/C,"endpoint: mean survival time, dose: 200.0 mg/kg/injection, schedule: Q04DX002 (ip), vehicle: saline with Tween-80",120 % of control
N#CC(=C=[N-])[n+]1ccccc1,T/C,"endpoint: mean survival time, dose: 12.5 mg/kg/injection, schedule: Q04DX003 (ip), vehicle: Klucel (hydroxypropylcellulose) (HPC)",98 % of control
same,T/C,"endpoint: mean survival time, dose: 25.0 mg/kg/injection, schedule: Q04DX003 (ip), vehicle: Klucel (hydroxypropylcellulose) (HPC)",100 % of control
Cc1ccc(S(=O)(=O)N=P(c2ccccc2)(c2ccccc2)c2ccccc2)cc1,T/C,[2],93 % of control and 94 % of control
same,T/C,[3],88 % of control
same,T/C,[4],91 % of control and 93 % of control
CCOC(=O)C(=O)Nc1ccc(Cl)cc1,T/C,"endpoint: mean survival time, dose: 100.0 mg/kg/injection, schedule: Q01DX001 (ip), vehicle: saline with Tween-80",94 % of control
same,T/C,"endpoint: mean survival time, dose: 200.0 mg/kg/injection, schedule: Q01DX001 (ip), vehicle: saline with Tween-80",97 % of control
same,T/C,"endpoint: mean survival time, dose: 400.0 mg/kg/injection, schedule: Q01DX001 (ip), vehicle: saline with Tween-80",95 % of control
C(=C\c1ccncc1)/c1ccccc1,T/C,[1],93 % of control
same,T/C,[5],92 % of control
same,T/C,[6],93 % of control
CCS(=O)(=O)/C=C(\I)C(C)(C)C,T/C,[2],97 % of control
same,T/C,[1],98 % of control
same,T/C,[3],102 % of control
same,T/C,[5],102 % of control
same,T/C,[4],100 % of control
same,T/C,[6],95 % of control
O=[N+]([O-])O.[NH2-].[NH2-].[NH2-].[NH2-].[OH-].[OH-].[Pt+4].[Pt+4],T/C,"endpoint: mean survival time, dose: 2.5 mg/kg/injection, schedule: Q04DX003 (ip), vehicle: water",89 % of control
same,T/C,"endpoint: mean survival time, dose: 5.0 mg/kg/injection, schedule: Q04DX003 (ip), vehicle: water",97 % of control
same,T/C,"endpoint: median survival time, dose: 0.15 mg/kg/injection, schedule: Q04DX003 (ip), vehicle: water",97 % of control
same,T/C,"endpoint: median survival time, dose: 0.31 mg/kg/injection, schedule: Q04DX003 (ip), vehicle: water",97 % of control
CCCC(C)OC(=O)c1ccc([N+](=O)[O-])cc1 (configuration not stated),T/C,"endpoint: mean survival time, dose: 100.0 mg/kg/injection, schedule: Q01DX001 (ip), vehicle: saline",100 % of control
same,T/C,[7],110 % of control
same,T/C,[8],93 % of control
Nc1ncnc2c1ncn2CCC(CO)CO,T/C,[7],102 % of control
same,T/C,[8],107 % of control
